The values that follow come from US10364238B2, “N-((het) arylmethyl)-heteroaryl-carboxamides compounds as plasma kallikrein inhibitors” (KALVISTA PHARMACEUTICALS LIMITED, priority 2014, dated 2019).

One assay concerns the target Human plasma kallikrein (Homo sapiens (Human), UniProt P03952). Description: Determination of the IC50 for plasma kallikrein. It counts as biochemical. The following applies: 25° C., fluorogenic substrate H-DPro-Phe-Arg-AFC; read-out: IC50 (human PKaI). Here is the method:
Determination of the IC50 for Plasma Kallikrein
Human plasma kallikrein (Protogen) was incubated at 25° C. with the fluorogenic substrate H-DPro-Phe-Arg-AFC and various concentrations of the test compound. Residual enzyme activity (initial rate of reaction) was determined by measuring the change in […] at 410 nm and the IC50 value for the test compound was determined.

Another assay addresses Human KLK1 (Homo sapiens (Human), UniProt P06870). Description: Determination of the IC50 for KLK1. It counts as biochemical. The following applies: 25° C., fluorogenic substrate H-DVal-Leu-Arg-AFC. How it is done:
Determination of the IC50 for KLK1
Human KLK1 (Callbiochem) was incubated at 25° C. with the fluorogenic substrate H-DVal-Leu-Arg-AFC and various concentrations of the test compound. Residual enzyme activity (initial rate of reaction) was determined by measuring the change in […] at 410 nm and the IC50 value for the test compound was determined.

Human plasma kallikrein, sequence (P03952 391-638): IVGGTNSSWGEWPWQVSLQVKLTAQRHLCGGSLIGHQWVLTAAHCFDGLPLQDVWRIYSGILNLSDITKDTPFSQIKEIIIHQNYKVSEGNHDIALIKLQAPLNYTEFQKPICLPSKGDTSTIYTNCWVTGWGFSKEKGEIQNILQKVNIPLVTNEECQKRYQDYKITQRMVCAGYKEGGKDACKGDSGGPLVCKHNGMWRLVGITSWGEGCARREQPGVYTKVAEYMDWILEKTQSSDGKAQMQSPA
Human plasma kallikrein, sequence (P03952 20-390 partner): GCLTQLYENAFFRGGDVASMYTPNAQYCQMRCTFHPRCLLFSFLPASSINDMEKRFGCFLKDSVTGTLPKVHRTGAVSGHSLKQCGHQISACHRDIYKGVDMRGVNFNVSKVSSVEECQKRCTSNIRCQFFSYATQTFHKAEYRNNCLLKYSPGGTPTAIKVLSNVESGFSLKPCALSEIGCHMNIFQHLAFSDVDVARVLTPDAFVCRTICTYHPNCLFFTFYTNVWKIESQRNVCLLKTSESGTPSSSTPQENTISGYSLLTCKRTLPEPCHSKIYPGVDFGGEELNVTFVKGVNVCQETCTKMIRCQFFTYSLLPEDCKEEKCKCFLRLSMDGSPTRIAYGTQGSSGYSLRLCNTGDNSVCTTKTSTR
Human KLK1, sequence (P06870 25-262): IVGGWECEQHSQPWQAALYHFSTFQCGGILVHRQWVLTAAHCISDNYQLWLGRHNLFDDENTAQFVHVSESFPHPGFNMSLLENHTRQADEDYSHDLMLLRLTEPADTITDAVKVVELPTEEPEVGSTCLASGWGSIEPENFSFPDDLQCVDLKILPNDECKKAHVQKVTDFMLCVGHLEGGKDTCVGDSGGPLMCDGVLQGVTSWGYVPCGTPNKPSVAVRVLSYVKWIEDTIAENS

As to `Cc1cnn(Cc2ccc(Cn3cc(C(=O)NCc4c(C)cccc4C)c(C(F)(F)F)n3)cc2)c1` [Example 25, N-[(2,6-dimethylphenyl)methyl]-1-({4-[(4-methylpyrazol-1-yl)methyl]phenyl}methyl)-3-(trifluoromethyl)pyrazole-4-carboxamide], the IC50 at Human plasma kallikrein was 1840 nM; against Human KLK1, > 10000 nM.

Take `Cc1cnn(Cc2ccc(Cn3cc(C(=O)NCc4ncccc4F)c(C(F)(F)F)n3)cc2)c1` [Example 29, N-[(3-fluoropyridin-2-yl)methyl]-1-({4-[(4-methylpyrazol-1-yl)methyl]phenyl}methyl)-3-(trifluoromethyl)pyrazole-4-carboxamide]: the figures for the IC50 on Human plasma kallikrein and against Human KLK1 were 2190 nM and > 10000 nM, respectively.

Consider `Cc1cnn(Cc2ccc(Cn3cc(C(=O)NCc4cccc(Cl)c4F)c(C(F)(F)F)n3)cc2)c1` [Example 19, N-[(3-chloro-2-fluorophenyl)methyl]-1-({4-[(4-methylpyrazol-1-yl)methyl]phenyl}methyl)-3-(trifluoromethyl)pyrazole-4-carboxamide], for which the IC50 on Human plasma kallikrein is 1130 nM; at Human KLK1, > 10000 nM.

For the compound `COCc1nn(Cc2ccc(N3CCCC3)nc2)cc1C(=O)NCc1csc2ccc(Cl)cc12` [Example 46, N-[(5-chloro-1-benzothiophen-3-yl)methyl]-3-(methoxymethyl)-1-{[6-(pyrrolidin-1-yl)pyridin-3-yl]methyl}pyrazole-4-carboxamide], the IC50 at Human plasma kallikrein is 2400 nM; at Human KLK1, > 10000 nM.

For the compound `COCc1nn(Cc2ccc(Cn3ccccc3=O)cc2)cc1C(=O)NCc1cnccc1C(F)(F)F` [Example 31, 3-(methoxymethyl)-1-({4-[(2-oxopyridin-1-yl)methyl]phenyl}methyl)-N-{[4-(trifluoromethyl)pyridin-3-yl]methyl}pyrazole-4-carboxamide], the figures for the IC50 on Human plasma kallikrein and at Human KLK1 were 392 nM and > 10000 nM, respectively.

For the compound `COCc1nn(Cc2ccc(Cn3ccccc3=O)cc2)cc1C(=O)NCc1c(F)cccc1C(F)F` [Example 80, N-{[2-(difluoromethyl)-6-fluorophenyl]methyl}-3-(methoxymethyl)-1-({4-[(2-oxopyridin-1-yl)methyl]phenyl}methyl)pyrazole-4-carboxamide], the IC50 on Human plasma kallikrein was 20.4 nM; on Human KLK1 it was > 40000 nM.

As to `Cc1ccc(CNC(=O)c2cn(Cc3ccc(Cn4cc(C)cn4)cc3)nc2C(F)(F)F)cc1` [Example 8, N-[(4-methylphenyl)methyl]-1-({4-[(4-methylpyrazol-1-yl)methyl]phenyl}methyl)-3-(trifluoromethyl)pyrazole-4-carboxamide], the IC50 at Human plasma kallikrein was 539 nM; on Human KLK1, > 10000 nM.

On to `Cc1cnn(Cc2ccc(Cn3cc(C(=O)NCc4cc(Cl)ccc4F)c(C(F)(F)F)n3)cc2)c1` [Example 20, N-[(5-chloro-2-fluorophenyl)methyl]-1-({4-[(4-methylpyrazol-1-yl)methyl]phenyl}methyl)-3-(trifluoromethyl)pyrazole-4-carboxamide], for which the IC50 on Human plasma kallikrein was 740 nM; at Human KLK1, > 10000 nM.

For the compound `Cc1cnn(Cc2ccc(Cn3cc(C(=O)NCc4c(F)cc(Cl)cc4F)c(C(F)(F)F)n3)cc2)c1` [Example 16, N-[(4-chloro-2,6-difluorophenyl)methyl]-1-({4-[(4-methylpyrazol-1-yl)methyl]phenyl}methyl)-3-(trifluoromethyl)pyrazole-4-carboxamide], the IC50 was 263 nM at Human plasma kallikrein and > 10000 nM against Human KLK1.

On to `COCc1nn(Cc2ccc(Cn3cc(F)ccc3=O)cc2)cc1C(=O)NCc1c(F)ccc(OC)c1F` [Example 108, N-[(2,6-difluoro-3-methoxyphenyl)methyl]-1-({4-[(5-fluoro-2-oxopyridin-1-yl)methyl]phenyl}methyl)-3-(methoxymethyl)pyrazole-4-carboxamide], for which the IC50 on Human plasma kallikrein was 5.5 nM; against Human KLK1, > 10000 nM.
